Measured values: the supplement of paper PMC10307832

Columns and labels:
Assay in all cases: relative viability (nuclei count vs DMSO), 5 days (fraction); higher = more cells survive
Cediranib + Lapatinib = compound: COc1cc2c(Oc3ccc4[nH]c(C)cc4c3F)ncnc2cc1OCCCN1CCCC1 [Cediranib] + CS(=O)(=O)CCNCc1ccc(-c2ccc3ncnc(Nc4ccc(OCc5cccc(F)c5)c(Cl)c4)c3c2)o1 [Lapatinib] (partner 2 µM)
How it was run: (§1)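 Lung cancer cell lines in 1536-well plates were dosed by pin tool the day after seeding, either with one drug alone or with a fixed anchor-drug dose plus five library-drug doses (not always all listed) in √10 steps. After 5 days, cells were fixed and their nuclei stained in one step (final 0.05% Triton X-100, 1% formaldehyde, 1 ug/ml Hoechst), then counted on 4× images. Relative viability is the nuclei count in treated wells divided by that in vehicle wells. Values are medians of duplicate plates.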

Halofuginone + Alpelisib = compound: O=C(C[C@H]1NCCC[C@@H]1O)Cn1cnc2cc(Br)c(Cl)cc2c1=O (racemic) [Halofuginone] + Cc1nc(NC(=O)N2CCC[C@H]2C(N)=O)sc1-c1ccnc(C(C)(C)C(F)(F)F)c1 [Alpelisib] (partner 2 µM)
How it was run: as §1

Cediranib + Crizotinib = compound: COc1cc2c(Oc3ccc4[nH]c(C)cc4c3F)ncnc2cc1OCCCN1CCCC1 [Cediranib] + C[C@@H](Oc1cc(-c2cnn(C3CCNCC3)c2)cnc1N)c1c(Cl)ccc(F)c1Cl [Crizotinib] (partner 1 µM)
How it was run: as §1

Halofuginone + Foretinib = compound: O=C(C[C@H]1NCCC[C@@H]1O)Cn1cnc2cc(Br)c(Cl)cc2c1=O (racemic) [Halofuginone] + COc1cc2c(Oc3ccc(NC(=O)C4(C(=O)Nc5ccc(F)cc5)CC4)cc3F)ccnc2cc1OCCCN1CCOCC1 [Foretinib] (partner 0.25 µM)
How it was run: as §1

Cell Line	relative viability (Cediranib + Lapatinib; first compound 0.04 µM)	relative viability (Cediranib + Lapatinib; first compound 0.1265 µM)	relative viability (Cediranib + Lapatinib; first compound 0.4 µM)	relative viability (Cediranib + Lapatinib; first compound 1.265 µM)	relative viability (Cediranib + Lapatinib; first compound 4 µM)	relative viability (Halofuginone + Alpelisib; first compound 0.001 µM)	relative viability (Halofuginone + Alpelisib; first compound 0.003162 µM)	relative viability (Halofuginone + Alpelisib; first compound 0.01 µM)	relative viability (Halofuginone + Alpelisib; first compound 0.03162 µM)	relative viability (Halofuginone + Alpelisib; first compound 0.1 µM)	relative viability (Cediranib + Crizotinib; first compound 0.04 µM)	relative viability (Cediranib + Crizotinib; first compound 0.1265 µM)	relative viability (Cediranib + Crizotinib; first compound 0.4 µM)	relative viability (Cediranib + Crizotinib; first compound 1.265 µM)	relative viability (Cediranib + Crizotinib; first compound 4 µM)	relative viability (Halofuginone + Foretinib; first compound 0.001 µM)	relative viability (Halofuginone + Foretinib; first compound 0.003162 µM)	relative viability (Halofuginone + Foretinib; first compound 0.01 µM)	relative viability (Halofuginone + Foretinib; first compound 0.03162 µM)	relative viability (Halofuginone + Foretinib; first compound 0.1 µM)
NCI-H2085	0.846	0.791	0.839	0.725	0.774	0.901	0.98	0.943	0.873	0.623	0.888	0.927	0.876	0.813	0.868	0.935	0.937	0.974	1.22	0.59
NCI-H2087	1.08	0.825	1.01	0.984	1.07	1.12	0.98	1.14	0.935	0.612	0.926	0.868	0.807	0.838	0.912	1.28	1.14	1.04	1.29	0.331
NCI-H2126	0.749	0.595	0.715	0.55	0.741	0.71	0.74	0.696	0.734	0.698	1.04	1.07	0.986	0.994	1.01	1.28	1.19	1.16	1.17	0.947
NCI-H2170	0.295	0.277	0.243	0.232	0.268	0.863	0.846	0.799	0.681	0.656	1.45	1.42	1.05	1.13	1.37	0.987	1	0.968	0.478	1.03
NCI-H2228	1.06	1.07	0.928	1.18	1.17	0.797	0.877	0.762	0.399	0.151	0.54	0.562	0.545	0.419	0.327	0.908	1.08	0.777	0.325	0.146
NCI-H2347	1.07	0.512	0.916	0.909	0.964	1.07	1.07	1.09	1.02	0.876	0.672	0.698	0.794	0.865	0.675	1.35	0.929	0.994	0.841	1
NCI-H2405	1.02	1.13	1.11	1.13	1.09	0.94	0.939	0.839	0.757	0.546	0.849	0.82	0.792	0.823	0.825	1.11	1.1	1.03	1.02	0.888
NCI-H3122	1.05	0.985	1.01	0.98	1.05	0.79	0.801	0.638	0.76	0.781	0.259	0.297	0.277	0.256	0.275	0.931	0.946	0.963	0.96	0.987
PC-3 [JPC-3]	0.479	0.554	0.472	0.391	0.45	1.09	1.03	0.95	1.01	0.92	1.05	1.04	1.01	1.02	0.857	1.02	1.04	0.981	0.996	1.08
PC-14	0.308	0.461	0.297	0.301	0.404	0.985	1.01	0.878	0.724	0.428	0.895	0.909	0.82	0.918	0.855	0.937	0.977	0.859	0.903	0.8
RERF-LC-KJ	0.94	0.751	0.783	0.836	0.954	0.849	1.09	0.735	0.908	0.831	0.875	0.893	0.799	0.782	0.752	0.902	1.01	0.967	0.853	0.815
SK-LU-1	1	0.743	0.851	0.836	1.07	1.14	1.13	1.02	0.888	0.247	0.973	0.853	0.781	0.897	0.983	0.921	0.8	0.753	0.759	0.406
SK-MES-1	0.471	0.502	0.441	0.514	0.473	0.952	1.32	0.853	0.832	0.522	1.06	1.05	0.915	0.963	1.06	1.06	1.06	0.911	0.828	0.611
SW 1573	1.17	1.11	0.959	1.07	1.3	0.735	0.748	0.717	0.645	0.618	0.833	0.764	0.726	0.717	0.889	0.959	1.05	0.945	0.943	0.762
